Source: the NIST ThermoML archive (doi:10.1016/j.jct.2011.10.001)

Assay: molar heat capacity at constant pressure
Conditions: 101.33 kPa, Vacuum adiabatic calorimetry

CCCC(=O)OC [methyl butanoate]
molar heat capacity at constant pressure [J/K/mol]
Conditions	Crystal	Liquid
5 K	0.356	–
7.61 K	1.24	–
7.88 K	1.381	–
8.13 K	1.514	–
8.39 K	1.657	–
8.65 K	1.805	–
8.9 K	2.108	–
9.16 K	2.207	–
9.41 K	2.466	–
9.66 K	2.549	–
9.91 K	2.719	–
10 K	2.828	–
10.22 K	2.894	–
10.6 K	3.3	–
10.98 K	3.648	–
11.35 K	4.064	–
11.73 K	4.38	–
12.13 K	4.735	–
12.5 K	5.111	–
12.86 K	5.563	–
13.23 K	5.907	–
13.6 K	6.278	–
13.96 K	6.646	–
14.33 K	7.063	–
14.68 K	7.551	–
15 K	7.893	–
15.04 K	7.92	–
15.4 K	8.318	–
15.76 K	8.825	–
16.11 K	9.332	–
16.47 K	9.652	–
16.82 K	10.21	–
17.17 K	10.66	–
17.53 K	11.07	–
17.88 K	11.41	–
18.23 K	11.84	–
18.58 K	12.53	–
18.93 K	12.9	–
19.28 K	13.53	–
19.63 K	13.98	–
19.98 K	14.42	–
20 K	14.36	–
20.62 K	15.2	–
21.39 K	16.16	–
22.15 K	17.23	–
22.91 K	18.29	–
23.67 K	19.35	–
24.44 K	20.59	–
25 K	21.25	–
25.2 K	21.61	–
25.97 K	22.55	–
26.73 K	23.64	–
27.49 K	24.49	–
28.25 K	25.82	–
29.01 K	26.93	–
29.77 K	27.91	–
30 K	28.14	–
30.53 K	29.04	–
31.29 K	29.6	–
32.82 K	31.82	–
33.59 K	32.79	–
34.35 K	33.88	–
35 K	34.59	–
35.11 K	34.58	–
35.86 K	35.63	–
36.61 K	36.63	–
37.37 K	37.49	–
38.12 K	38.33	–
38.88 K	38.88	–
39.63 K	39.87	–
40 K	40.28	–
40.39 K	40.69	–
41.14 K	41.43	–
41.9 K	42.12	–
42.65 K	43.21	–
43.4 K	44	–
44.16 K	44.51	–
44.91 K	45.66	–
45 K	45.57	–
45.66 K	46.29	–
46.41 K	47.13	–
47.17 K	47.63	–
47.92 K	48.66	–
48.66 K	49.52	–
49.41 K	50.2	–
50 K	50.77	–
50.16 K	50.98	–
50.91 K	51.69	–
51.66 K	52.27	–
52.4 K	53.16	–
53.15 K	54.06	–
53.89 K	54.63	–
54.64 K	55.7	–
55 K	55.94	–
55.38 K	56.48	–
56.12 K	57.16	–
56.87 K	57.9	–
59.09 K	60.08	–
59.84 K	60.45	–
60 K	60.87	–
60.58 K	61.42	–
61.32 K	62.07	–
62.06 K	62.68	–
62.8 K	63.44	–
63.54 K	64.04	–
64.28 K	64.72	–
65 K	65.14	–
65.03 K	65.05	–
65.77 K	65.7	–
66.5 K	66.39	–
67.24 K	66.79	–
67.98 K	67.34	–
68.72 K	67.73	–
69.46 K	68.24	–
70 K	68.48	–
70.2 K	68.47	–
71.09 K	68.75	–
72.14 K	69.62	–
73.19 K	70.47	–
74.24 K	70.88	–
75 K	71.36	–
75.29 K	71.51	–
76.34 K	72.3	–
77.39 K	72.87	–
78.44 K	73.35	–
78.68 K	72.62	–
79.48 K	74.12	–
79.71 K	73.82	–
80 K	74.1	–
80.53 K	74.83	–
80.74 K	74.41	–
81.58 K	75.43	–
81.76 K	74.8	–
82.62 K	75.67	–
82.79 K	75.48	–
83.67 K	76.36	–
83.81 K	75.48	–
84.83 K	76.86	–
85 K	76.9	–
85.85 K	77.51	–
86.87 K	77.78	–
87.89 K	78.68	–
88.91 K	79.57	–
89.93 K	79.99	–
90 K	79.81	–
90.96 K	80.42	–
91.97 K	80.85	–
92.99 K	81.43	–
94.01 K	82.02	–
95 K	82.75	–
95.03 K	82.39	–
96.04 K	83.43	–
97.06 K	84.19	–
98.07 K	84.16	–
99.09 K	84.89	–
100 K	85.29	–
100.1 K	85.45	–
101.62 K	86.18	–
103.64 K	87.3	–
105.66 K	88.28	–
107.68 K	89.36	–
109.7 K	90.17	–
110 K	90.46	–
111.72 K	91.08	–
113.73 K	92.15	–
115.74 K	93.34	–
117.75 K	94.24	–
119.76 K	95.16	–
120 K	95.31	–
121.76 K	96.24	–
123.77 K	97.13	–
125.78 K	98.02	–
127.78 K	98.84	–
129.79 K	99.75	–
130 K	99.17	–
131.79 K	100.55	–
133.79 K	101.43	–
135.8 K	102.27	–
137.8 K	103.03	–
139.79 K	103.9	–
140 K	103.65	–
141.79 K	104.89	–
143.79 K	105.51	–
145.78 K	106.36	–
147.78 K	107.25	–
149.77 K	107.92	–
150 K	108.14	–
151.89 K	109.06	–
153.86 K	109.91	–
155.85 K	110.69	–
157.83 K	111.73	–
159.81 K	112.47	–
160 K	112.62	–
161.79 K	113.29	–
163.77 K	114.29	–
165.74 K	115.26	–
167.72 K	116.18	–
169.56 K	116.65	–
170 K	117.11	–
171.52 K	117.81	–
173.49 K	119.09	–
175.45 K	120.75	–
177.41 K	122.58	–
179.36 K	125.17	–
180 K	121.59	–
181.29 K	129.69	–
183.2 K	139.88	–
185.04 K	158.37	–
186.78 K	216.75	–
188.21 K	448.34	–
189.16 K	1561.8	–
189.7 K	8659.7	–
190 K	126.08	–
190.09 K	126.12	184.56
191.08 K	185.22	–
192.79 K	–	184.74
194.49 K	–	184.98
196.18 K	–	185.21
197.88 K	–	185.04
199.57 K	–	185.15
200 K	–	185.19
201.25 K	–	185.01
202.85 K	–	185.47
202.93 K	–	185.15
204.61 K	–	185.47
204.73 K	–	185.64
206.27 K	–	185.39
206.69 K	–	185.68
207.94 K	–	185.44
208.64 K	–	186
210 K	–	185.83
210.58 K	–	186.03
212.53 K	–	186
214.48 K	–	186.17
216.42 K	–	186.44
218.37 K	–	186.11
220 K	–	186.51
220.31 K	–	186.33
222.24 K	–	186.86
224.17 K	–	186.8
226.1 K	–	186.88
228.02 K	–	187.23
229.93 K	–	187.61
230 K	–	187.52
231.85 K	–	187.86
233.68 K	–	187.83
235.58 K	–	188.04
237.48 K	–	188.4
239.37 K	–	188.78
240 K	–	188.78
241.26 K	–	188.74
243.14 K	–	189.23
245.01 K	–	189.8
246.89 K	–	190.04
248.76 K	–	190.11
250 K	–	190.21
250.62 K	–	190.43
252.49 K	–	190.56
254.35 K	–	190.93
256.2 K	–	190.97
258.06 K	–	191.41
259.91 K	–	191.46
260 K	–	191.68
261.76 K	–	191.67
263.49 K	–	192.11
265.34 K	–	192.17
267.17 K	–	192.77
269.01 K	–	193.06
270 K	–	193.16
270.85 K	–	193.64
272.68 K	–	194.01
274.5 K	–	193.7
276.33 K	–	194.03
278.16 K	–	194.27
279.98 K	–	194.58
280 K	–	194.68
281.79 K	–	195.04
283.59 K	–	195.25
285.4 K	–	195.54
287.19 K	–	195.76
288.98 K	–	196.51
290 K	–	196.51
290.74 K	–	196.84
292.33 K	–	196.73
294.09 K	–	197.27
295.83 K	–	197.8
297.59 K	–	198
298.15 K	–	198.08
299.34 K	–	198.43
300 K	–	198.44
301.06 K	–	198.72
302.76 K	–	198.98
304.45 K	–	199.24
306.14 K	–	199.38
307.81 K	–	199.85
309.48 K	–	200.31
310 K	–	200.39
311.13 K	–	200.58
312.78 K	–	200.66
314.42 K	–	201.21
316.05 K	–	201.68
317.67 K	–	201.91
318.97 K	–	202.28
320 K	–	202.43
320.57 K	–	202.72
322.17 K	–	203.14
323.75 K	–	203.27
325.32 K	–	203.68
326.89 K	–	204.18
328.44 K	–	204.41
329.98 K	–	204.65
330 K	–	204.68
331.51 K	–	204.84
333.03 K	–	205.34
334.54 K	–	205.78
336.04 K	–	206.3
337.49 K	–	206.62
338.96 K	–	206.61
340 K	–	207.21
340.42 K	–	207.11
341.87 K	–	207.49
342.87 K	–	207.85
344.3 K	–	208.38
345.71 K	–	208.82
347.12 K	–	209.31
348.51 K	–	209.73
349.89 K	–	209.95
350 K	–	210.03
351.26 K	–	210.42
352.61 K	–	210.86
353.95 K	–	211.39
355.28 K	–	211.75
356.6 K	–	211.91
357.9 K	–	212.69
359.2 K	–	212.83
360 K	–	213
360.47 K	–	213.07
361.74 K	–	213.3
362.99 K	–	214.05
363.57 K	–	213.92
364.8 K	–	214.49
366.02 K	–	214.53
367.22 K	–	214.65
368.41 K	–	215.35
369.58 K	–	215.99
370 K	–	215.8
370.75 K	–	216.01
371.9 K	–	216.31
